From ChEMBL document CHEMBL5385903, “The activity and mechanism of vidofludimus as a potent enzyme inhibitor against NDM-1-positive E. coli” (Eur J Med Chem, 2023) come the findings set out here.

In brackets after ≈: the same amount, converted by molar mass. Activity calls are given as the source filed them. The rule behind the calls is not given here.

Test [1] has as its target Metallo-beta-lactamase type 2 (Bacteria, UniProt C7C422). The test can be described thus: Inhibition of Metallo-beta-lactamase NDM-1 (unknown origin) using nitrocefin as substrate incubated for 5 to 10 mins by spectramax reader analysis.
The test system of test [2] is Escherichia coli. The test can be described thus: Antibacterial activity against NDM-1 producing Escherichia coli assessed as inhibition of bacterial growth incubated overnight by broth microdilution assay. The class given is functional. A general note: Broth dilution looks for growth in wells or tubes with falling amounts of substance.
Test [3] deals with Escherichia coli. The test can be described thus: Antibacterial activity against NDM-1 producing Escherichia coli assessed as inhibition of bacterial growth at 4 ug/ml incubated for 5 hrs by time-kill assay. The class given is functional, organism-based. The note with it: dose 4.0 µg/ml.
Test [4] concerns Escherichia coli. The test can be described thus: Antibacterial activity in NDM-1 producing Escherichia coli infected in BALB/c mouse assessed as increase in animal survival rate at 10 mg/kg,SC administrated upto 120 hrs for every 12 hrs interval. The class given is functional.
The test system of test [5] is Escherichia coli. The test can be described thus: Antibacterial activity in NDM-1 producing Escherichia coli infected in BALB/c mouse assessed as reduction of bacterial burden in liver at 10 mg/kg,SC administration measured after 96 hrs of post-infection. Format: functional, organism-based.
The subject of test [6] is Escherichia coli. The test can be described thus: Antibacterial activity in NDM-1 producing Escherichia coli infected in BALB/c mouse assessed as reduction of bacterial burden in spleen at 10 mg/kg,SC administration measured after 96 hrs of post-infection. Format: functional, organism-based.
Test [7] deals with Escherichia coli. The test can be described thus: Antibacterial activity in NDM-1 producing Escherichia coli infected in BALB/c mouse assessed as reduction of bacterial burden in small intestine at 10 mg/kg,SC administration measured after 96 hrs of post-infection. Format: functional, organism-based.
For test [8], the system named is Escherichia coli. The test can be described thus: Antibacterial activity in NDM-1 producing Escherichia coli infected in BALB/c mouse assessed as decrease in pathological damage in liver at 10 mg/kg,SC administration measured after 96 hrs of post-infection by hematoxylin and eosin staining based assay. Format: functional, organism-based.
For test [9], the system named is Escherichia coli. The test can be described thus: Antibacterial activity in NDM-1 producing Escherichia coli infected in BALB/c mouse assessed as decrease in pathological damage in spleen at 10 mg/kg,SC administration measured after 96 hrs of post-infection by hematoxylin and eosin staining based assay. Format: functional, organism-based.
The subject of test [10] is Escherichia coli. The test can be described thus: Antibacterial activity in NDM-1 producing Escherichia coli infected in BALB/c mouse assessed as decrease in pathological damage in small intestine at 10 mg/kg,SC administration measured after 96 hrs of post-infection by hematoxylin and eosin staining based assay. Format: functional, organism-based.
Test [11] deals with Escherichia coli. The test can be described thus: Synergistic antibacterial activity against NDM-1 producing Escherichia coli assessed as inhibition of bacterial growth incubated overnight in presence of meropenem by broth microdilution assay. The class given is functional.
In test [12] the test system is Escherichia coli. The test can be described thus: Synergistic antibacterial activity against NDM-1 producing Escherichia coli assessed as inhibition of bacterial growth by measuring meropenem MIC incubated overnight in presence of meropenem by broth microdilution assay. The class given is functional.
For test [13], the system named is Escherichia coli. The test can be described thus: Synergistic antibacterial activity against NDM-1 producing Escherichia coli assessed as fractional inhibitory concentration index in presence of meropenem by checkerboard broth microdilution assay. The class given is functional.
Test [14] concerns the target T1, Beta-lactamase NDM-1 (Escherichia coli, UniProt E5KIY2). The test can be described thus: Inhibition of Escherichia coli NDM-1 expressed in Escherichia coli BL21 (DE3) using nitrocefin as substrate by microplate reader analysis.
Test [15] addresses Beta-lactamase NDM-1 (Escherichia coli) (UniProt E5KIY2). The test can be described thus: Inhibition of Escherichia coli NDM-1 expressed in Escherichia coli BL21 (DE3) using nitrocefin as substrate at 10 ug/ml by microplate reader analysis relative to control. The note with it: dose 10.0 µg/ml.
Test [16] deals with Escherichia coli. The test can be described thus: Antibacterial activity against NDM-1 producing Escherichia coli assessed as inhibition of bacterial growth at 2 to 512 ug/ml incubated overnight by broth microdilution assay. As to conditions: dose 2-512 µg/ml. Format: functional, organism-based.
The test system of test [17] is Escherichia coli. The test can be described thus: Antibacterial activity against NDM-1 producing Escherichia coli assessed as inhibition of bacterial growth at 64 ug/ml incubated for 5 hrs by time-kill assay. The class given is functional, organism-based. As to conditions: dose 64.0 µg/ml.
Test [18] has as its system Escherichia coli. The test can be described thus: Antibacterial activity in NDM-1 producing Escherichia coli infected in BALB/c mouse assessed as increase in animal survival rate at 10 mg/kg,IG administrated upto 120 hrs for every 12 hrs interval. As to conditions: po. Format: functional.
Test [19] has as its system Escherichia coli. The test can be described thus: Synergistic antibacterial activity in NDM-1 producing Escherichia coli infected in BALB/c mouse assessed as increase in animal survival rate at 10 mg/kg,IG administrated with meropenem by subcutaneous injection upto 120 hrs for every 12 hrs interval. The class given is functional.
For test [20], the system named is Escherichia coli. The test can be described thus: Antibacterial activity in NDM-1 producing Escherichia coli infected in BALB/c mouse assessed as effect on white blood cell count at 10 mg/kg,IG administration measured after 96 hrs of post-infection. The class given is functional, organism-based.
The subject of test [21] is Escherichia coli. The test can be described thus: Antibacterial activity in NDM-1 producing Escherichia coli infected in BALB/c mouse assessed as decrease in TNF-alpha level at 10 mg/kg,IG administration measured after 96 hrs of post-infection by ELISA. Format: functional, organism-based. In general terms: An ELISA detects its analyte on a solid surface through an enzyme-linked reagent.

The test system of test [22] is Escherichia coli. The test can be described thus: Antibacterial activity in NDM-1 producing Escherichia coli infected in BALB/c mouse assessed as decrease in IL-1beta level at 10 mg/kg,IG administration measured after 96 hrs of post-infection by ELISA. The class given is functional, organism-based.
Test [23] relates to Escherichia coli. The test can be described thus: Antibacterial activity in NDM-1 producing Escherichia coli infected in BALB/c mouse assessed as decrease in IFN-gamma level at 10 mg/kg,IG administration measured after 96 hrs of post-infection by ELISA. The class given is functional, organism-based.
Test [24] relates to Escherichia coli. The test can be described thus: Antibacterial activity in NDM-1 producing Escherichia coli infected in BALB/c mouse assessed as decrease in pathological damage in liver at 10 mg/kg,IG administration measured after 96 hrs of post-infection by hematoxylin and eosin staining based assay. Format: functional, organism-based.
Test [25] concerns Escherichia coli. The test can be described thus: Antibacterial activity in NDM-1 producing Escherichia coli infected in BALB/c mouse assessed as decrease in pathological damage in spleen at 10 mg/kg,IG administration measured after 96 hrs of post-infection by hematoxylin and eosin staining based assay. The class given is functional, organism-based.
For test [26], the system named is Escherichia coli. The test can be described thus: Antibacterial activity in NDM-1 producing Escherichia coli infected in BALB/c mouse assessed as decrease in pathological damage in small intestine at 10 mg/kg,IG administration measured after 96 hrs of post-infection by hematoxylin and eosin staining based assay. The class given is functional, organism-based.
For test [27], the target named is Beta-lactamase NDM-1 (Escherichia coli) (UniProt E5KIY2). The test can be described thus: Inhibition of Escherichia coli NDM-1 assessed as effect on NDM-1 protein expression at 64 ug/ml incubated for 12 hrs by Western blotting analysis. As to conditions: dose 64.0 µg/ml.
The target is the same in test [28]. The test can be described thus: Binding affinity to Escherichia coli NDM-1 assessed as melting temperature at 64 ug/ml incubated for 18 hrs by CD spectroscopy. As to conditions: dose 64.0 µg/ml.
For test [29] the target is unchanged. The test can be described thus: Inhibition of Escherichia coli recombinant wild type NDM-1 expressed in Escherichia coli BL21 (DE3) incubated for 10 mins.
Test [30] shares this target. The test can be described thus: Inhibition of Escherichia coli recombinant wild type NDM-1 expressed in Escherichia coli BL21 (DE3) at 4 to 128 ug/ml incubated for 10 mins relative to control. As to conditions: dose 4-128 µg/ml.
In test [31] the test system is Beta-lactamase NDM-1 (Escherichia coli), E5KIY2 [UNDEFINED MUTATION]. The test can be described thus: Inhibition of Escherichia coli recombinant NDM-1 mutant expressed in Escherichia coli BL21 (DE3) at 4 to 128 ug/ml incubated for 10 mins. As to conditions: dose 4-128 µg/ml.
Test [32] addresses T1, Beta-lactamase NDM-1. The test can be described thus: Binding affinity to Escherichia coli NDM-1 assessed as equilibrium dissociation constant measured for 60 sec by bio-layer interferometry analysis. A general note: Biolayer interferometry detects binding as a change in optical thickness at a sensor tip.
In test [33] the target is Beta-lactamase NDM-1 (Escherichia coli) (UniProt E5KIY2). The test can be described thus: Binding affinity to Escherichia coli NDM-1 by bio-layer interferometry analysis.

On to `N[C@@H](CN[C@@H](CN[C@@H](CC(=O)O)C(=O)O)C(=O)O)C(=O)O`, for which, in [1], the IC50 (commonly the concentration that gives 50% inhibition) came out at 4.1 µM.
For the compound `C[C@@H](O)[C@H]1C(=O)N2C(C(=O)O)=C(S[C@@H]3CN[C@H](C(=O)N(C)C)C3)[C@H](C)[C@H]12` [MEROPENEM], in test [2], the MIC (commonly the least concentration at which growth counts as inhibited) was 64 µg/mL (≈ 167 µM). The outcome in test [3] was inactive. Besides, in test [4], the survival at 10 mg/kg stood at 40%. For the same compound, the result in test [5], in [6], in [7], in [8], in [9] and in [10] was Active.
In the case of `COc1cccc(-c2ccc(NC(=O)C3=C(C(=O)O)CCC3)c(F)c2)c1` [VIDOFLUDIMUS], the MIC in [2] is 1020 µg/mL (≈ 2880 µM); in test [11] it was 64 µg/mL; in test [12] it was 4 µg/mL. Besides, the “fractional inhibitory concentration index (FICI)” value in [13] is 0.125. This compound also displayed an IC50 in [14] of 13.8 µM. In addition, the inhibition (usually the relative decrease from the control value, in per cent) was 93.3% in test [15], “Dose-Dependent Effect” in test [29] and 14.9% in test [30]. The outcome in test [16], in test [17], in [20], in test [21], in [22] and in test [23] was inactive. For the same compound, the outcome in test [24], in test [25] and in [26] was inactive. The survival at 10 mg/kg worked out at 10% in [18] and 90% in [19]. Besides, the inhibition entry in [27] and in test [31] was “inactive” in each case. Also, the Tm in test [28] is 58 °C. Further, in [32], the Kd (in general, the equilibrium constant for the complex coming apart) was found to be 0.337 µM. For the same compound, the Activity result in test [33] was “Dose-Dependent Effect”.
